From publication PMC12164071, “Lysine targeting covalent inhibitors of malarial kinase PfCLK3” (RSC Medicinal Chemistry, 2025)
Several values for one entry are separate records, joined by “and”; a condition that tells them apart may be missing. Equal values may be shown once. Entries after “also recorded” stand apart in the source; their conditions may differ. Read-outs that look alike come from different tables or passages of the source.

Experiments:
PfCLK3 = assay: Tryptic digest and tandem mass spectrometry of PfCLK3 adducts; assay type: binding, Plasmodium falciparum; details: PfCLK3 pretreated with compound, trypsin digest, tandem MS
Text: PfCLK3 pretreated with either compound 4 or 9 was then digested with trypsin, and the resulting tryptic peptides analysed by tandem mass spectrometry (Fig. 4d and e). This subset of compounds sampled azaindole regioisomers as well as both aldehyde warheads used. […] However, possible modification of a peptide containing Lys494 and Lys503 was also observed. This is a curious result, as a secondary adduct was not observed in the intact spectrum. Lys503 is distal from the ATP binding site, whereas Lys494 lies at its entrance. Adduct formation may be occurring with Lys494 as 4 approaches the binding-site.
This is consistent with the intact mass spectrum, which detected a doubly modified species in ∼20% abundance versus the singly modified protein. […]
For intact protein mass spectrometry, compounds were incubated with a 5-fold excess of compound in buffer containing 20 mM HEPES pH 7.4, 150 mM NaCl, 1 mM TCEP, and 1 mM MgCl 2. […] Samples were incubated at room temperature for 4 hours before 10 μL alliquots were analysed by LC-MS. […]
The resulting peptide mixture was analyzed by high resolution nESI FT-ICR MS using a 12 Telsa Solarix 2XR mass spectrometer (Bruker Daltonics) equipped with a nanomate infusion robot (Advion Biosciences). […]

[1] = test system: PfCLK3 kinase domain (amino acid residues 334–699); assay: Intact protein LC-MS for covalent adduct formation; assay type: binding, Plasmodium falciparum; details: for covalent adduct formation with PfCLK3 kinase domain: pH 7.4, 1:5 protein to compound ratio
Procedure: All compounds were then evaluated for covalent binding with PfCLK3 kinase domain (amino acid residues 334–699) using intact protein LC-MS (Fig. 3). Compounds were incubated at pH 7.4 in a 1 : 5 protein to compound ratio and analysed for covalent adduct formation using ESI TOF. […] Compounds 8 and 9 yielded a fully modified species at 43 957 Da, which can be attributed to the mass of the apo protein + the mass of the pyridinium product adduct. A minor mass (20–25%) of 44 378 Da was also detected, consistent with a doubly modified PfCLK3 kinase domain. This implies that cross reactivity with non-catalytic lysine residues is possible using the ethynyl benzaldehyde functionality, although a minor product. […]
dialyzing the protein into a final buffer containing 20 mM HEPES pH 7.4, 150 mM NaCl, 1 […]
PfCLK3 kinase domain (residues 334–699 with a C-terminal TEV cleavage sequence and His6-tag) was cloned into pFastBac vector and expressed and purified from Sf21 insect cells.
Cells were infected using P2 BIICs at an MOI of 0.2 and left to express for 72 h. Harvested cells were lysed and centrifuged before purifying using IMAC and SEC in a final buffer containing 20 mM HEPES pH 7.4, 150 mM NaCl, 1 mM TCEP, and 1 mM MgCl2.
Protein Mass Spectrometry
For intact protein mass spectrometry, compounds were incubated with a 5-fold excess of compound in buffer containing 20 mM HEPES pH 7.4, 150 mM NaCl, 1 mM TCEP, and 1 mM MgCl 2. 5 μL of kinase domain (1 mg/mL) was added to 25 μL of buffer before 0.12 μL of compound in a 10 mM DMSO stock was added to start the incubation. Samples were incubated at room temperature for 4 hours before 10 μL alliquots were analysed by LC-MS.
Intact protein LC-MS experiments were performed on a Synapt G2 Q-ToF instrument equipped with electrospray ionisation (Waters Corp., Manchester, UK). LC separation was achieved using an Acquity UPLC equipped with a reverse phase C4 Aeris Widepore 50 × 2.1 mm HPLC column (Phenomenex, CA, USA) and a gradient of 5–95% acetonitrile (0.1% formic acid) over 10 minutes was employed. Data analysis was performed using MassLynx v4.1 and deconvolution was performed using MaxEnt. […]

human (h)CLK2 = human (h)CLK2 (Homo sapiens, UniProt P49760); assay: Selectivity kinase assay against hCLK2; assay type: biochemical; details: for IC50: errors SD, N ≥ 3
human (h)CLK2, sequence (P49760 whole entry): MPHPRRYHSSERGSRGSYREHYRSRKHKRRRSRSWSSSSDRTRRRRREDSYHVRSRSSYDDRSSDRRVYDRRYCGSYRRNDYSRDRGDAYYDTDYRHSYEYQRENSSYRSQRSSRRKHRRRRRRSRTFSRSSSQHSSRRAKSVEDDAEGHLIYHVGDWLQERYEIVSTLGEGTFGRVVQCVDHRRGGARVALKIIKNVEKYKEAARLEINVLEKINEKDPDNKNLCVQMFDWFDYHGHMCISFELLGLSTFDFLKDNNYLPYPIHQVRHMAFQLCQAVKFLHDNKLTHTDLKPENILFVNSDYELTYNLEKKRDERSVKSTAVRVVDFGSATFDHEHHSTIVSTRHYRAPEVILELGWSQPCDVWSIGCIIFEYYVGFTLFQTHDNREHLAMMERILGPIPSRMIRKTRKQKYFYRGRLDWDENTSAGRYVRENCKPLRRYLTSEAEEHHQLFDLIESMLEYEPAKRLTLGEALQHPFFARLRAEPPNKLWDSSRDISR
Text: Given this work aims to target a conserved residue, selectivity must be derived from the reversible ligand rather than the covalent interaction.

[2] = Human cell viability assay (resazurin); details: HepG2, 48 hours, errors SD, N ≥ 3
Procedure: Cytotoxicity was assessed in HepG2 cells to complement the selectivity evaluations (Fig. 7). […]
Human cell viability assay.
Mycoplasma tested HepG2 cells were cultured in Dulbecco’s Modified Eagle Medium
(DMEM) with 10% fetal bovine serum, 1% non-essential AA, 1% sodium pyruvate, 1% Pen-
strep and 100ug/mL Normocin. Cultures were incubated at 37 ℃, 5% CO2. Cells were
detached using 0.05% trypsin-EDTA. 500nL of drug compound dilutions, in triplicate, were
added to 384-well, black, clear bottom assay plates using a Mosquito liquid handling
machine. Assay plates, containing compound dilutions, were seeded at 5,000 cells/well and
incubated for 48 hours. 40uM final concentration resazurin, diluted in DPBS, was added to
the assay plates which were then incubated for 4 hours and analysed using a ClariostarTM
plate reader to measure fluorescence Intensity (545-20nm/600-40nm). 3 control compounds
were included on every assay plate, Tamoxifen, Puromycin and TCMDC-135051. Maximum
signal control was obtained from wells with DMSO only and minimum signal control with
Tamoxifen 100uM. These were used to normalise data and give percentage inhibition of
metabolic activity. Experiments were performed N=3 and normalised data was grouped and a
nonlinear regression curve with four parameters was plotted using GraphPad Prism,
generating activity data. […]

[3] = pH 7.4, 1:5 protein to compound, 4 hours room temperature, compound 4 with C-terminal His-tag construct

## CCN(CC)Cc1ccc(OC)c(-c2cc3c(-c4ccc(O)c(C=O)c4)ccnc3[nH]2)c1 [Compound 4]
PfCLK3
  site of modification: Lys394 was the predominant site of modification
[1]; imine adduct
  partial covalent bond formation, modification: 32–60%
[1]
  covalent adduct formation with PfCLK3 kinase domain: showed covalent adduct formation; also recorded: formed a covalent adduct with PfCLK3
[1]; [3]
  Relative Ratio, assignment apo: 40
  Relative Ratio, assignment holo (singly modified): 60
Human (h)CLK2; read-out: IC50 (hCLK2)
  IC50: 0.104 ± 0.037 µM
[2]; CC50 (HepG2)
  CC50 at 48 h: 5.25 ± 2.47 µM
[2]; pCC50 (HepG2)
  CC50 at 48 h: 5.25 µM

## C#Cc1ccc(-c2c[nH]c3ncc(-c4cc(CN(CC)CC)ccc4OC)cc23)cc1C=O [Compound 9]
PfCLK3
  site of modification: pyridinium modification was observed in peptides containing both the target Lys394, and Lys373
[1]; 44 378 Da species
  doubly modified PfCLK3 kinase domain, minor mass abundance: 20–25% and ~20%
[1]
  covalent adduct formation with PfCLK3 kinase domain: showed covalent adduct formation; also recorded: formed a covalent adduct with PfCLK3
[1]; pH 7.4, 1:5 protein to compound, 4 hours room temperature
  Relative Ratio, assignment holo (doubly modified): 20
[1]; [3]
  Relative Ratio, assignment holo (singly modified): 80
Human (h)CLK2; read-out: pIC50 (hCLK2) (converted)
  IC50: 0.0166 µM
Human (h)CLK2; relative to S1
  fold more potent against hCLK2 than parent S1: 31 fold
[2]; CC50 (HepG2)
  CC50 at 48 h: 7.94 ± 1.29 µM
[2]; pCC50 (HepG2)
  CC50 at 48 h: 7.94 µM
